Values after ≈ are worked out from the molar mass of the structure shown. Like-named read-outs stand apart in the source and are kept apart here.
Tests used:
Type in all cases: cell-based
[1] = test system: SA USA 300 (Methicillin-Resistant Staphylococcus aureus USA300); experiment: MIC; conditions: SA USA 300, read-out: MIC
Protocol: (§1) The strains included Staphylococcus aureus, Methicillin Resistant (ATCC 33591), Methicillin-Resistant Staphylococcus aureus USA300, Staphylococcus aureus 158, Staphylococcus aureus 22, Staphylococcus aureus 2, Staphylococcus aureus (ATCC 29213), and Staphylococcus aureus 182.
(§2) A series of compounds were evaluated for their activity against drug resistant S. aureus, including MSSA and MRSA strains.

[2] = test system: SA 22 (Staphylococcus aureus 22); experiment: MIC; conditions: SA 22, read-out: MIC
Protocol: as §1, §2

[3] = test system: SA 2 (Staphylococcus aureus 2); experiment: MIC; conditions: SA 2, read-out: MIC
Protocol: as §1, §2

[4] = test system: SA 29213 (Staphylococcus aureus (ATCC 29213)); experiment: MIC; conditions: ATCC29213, SA 29213, read-out: MIC
Protocol: as §1, §2

[5] = test system: SA 158 (Staphylococcus aureus 158); experiment: MIC; conditions: SA 158, read-out: MIC
Protocol: as §1, §2

[6] = test system: SA 33591 (Staphylococcus aureus, Methicillin Resistant (ATCC 33591)); experiment: MIC; conditions: ATCC33591, SA 33591, read-out: MIC
Protocol: as §1, §2

[7] = test system: SA 182 (Staphylococcus aureus 182); experiment: MIC; conditions: SA 182, read-out: MIC
Protocol: as §1, §2

Mammalian Cell Toxicity [8] = conditions: mouse, 3T3 cells
Mammalian Cell Toxicity [9] = conditions: human, MRC5 cells
K. pneumoniae 700603 = experiment: MIC; conditions: Klebsiella pneumoniae; K. pneumoniae 700603; read-out: MIC
S. aureus ATCC 29213 = experiment: Resistance passaging experiment; conditions: Staphylococcus aureus
Protocol: (§3) Two compounds (#880 and #169) were tested in time-kill assays against S. aureus strain 29213. These compounds were then used to attempt to select for resistant variants by passaging at sub-MIC concentrations for 20 passages.
The selected strain for this experiment was S. aureus ATCC 29213. A frozen glycerol stock was streaked onto MH-II agar and grown overnight at 37° C. The next day, 3-5 colonies were picked and grown in 3 mL of MH-II broth at 37° C. with 200 rpm shaking for approximately 4 hours. A 2-fold microdilution (in round-bottom, 96-well plates) was made for each compound being tested. CLSI guidelines for broth microdilution were followed. Using the bacteria grown from the overnight colonies, each microdilution was inoculated at a final concentration of 5×10^5 colony forming units (CFU)/mL. The microdilutions were incubated at 37° C. for 16 to 20 hours, after which the minimal inhibitory concentration (MIC) of each was read visually. The MIC is defined as the lowest concentration of compound resulting in no visible bacterial growth. This activity is recorded as the MIC at Passage 0. The contents of the well in the next dilution lower in concentration than the MIC (i.e., ½ the MIC) was mixed with a micropipette and 50 μL was transferred to 3 mL of fresh MH-II broth. This was grown at 37° C. with 200 rpm shaking for approximately 4 hours, at which time the sample was turbid. A 1 mL aliquot of this sample was added to a cryovial containing 300 μL of glycerol. This was marked as passage 1, vortexed, than placed in a −80° C. freezer for storage. The rest of the culture was adjusted to a bacterial concentration of 1×10^6cfu/mL (OD600 of 0.004), which was then used to inoculate a microdilution of the same compound (final bacterial concentration of 5×10^5 cfu/mL). This was incubated at 37° C. for 16 to 20 hours. After that time the MIC was once again read and recorded as the MIC at Passage 1. This process was repeated through 20 passages. Ciprofloxacin was included as a control and an untreated sample was also passaged 20 times as a negative control.

E. coli ESBL 4 = experiment: MIC; conditions: Escherichia coli, ESBL4; E. coli ESBL 4; read-out: MIC
[10] = test system: non-S. aureus bacterial strains (Staph epi, E. faecium, E. faecalis, S. pneumoniae); experiment: Re-test against other bacteria; conditions: Gm (+) organisms (e.g. Staph epi, E. faecium and E. faecalis)
Excerpt: The compounds were re-tested against other bacteria, including Staphylococcus epidermidis (ATCC 35984), Staphylococcus epidermidis (MRSE), E. faecium 134529, E. faecium 145494, […], E. faecium 161651, S. pneumoniae 49619, and S. pneumoniae 149389.
In some cases, the compounds were as active, or nearly so, against the non-S. aureus bacterial strains. While not wishing to be bound to a particular theory, it is believed that these compounds function by stabilizing or inhibiting the complex between the mRNA Shine-Dalgarno sequence, and the anti-Shine Delgarno sequence in the ribosome, and inhibit protein translation in this manner, rather than by inhibiting the ASL Arg, and the codon encoding arginine (AGA), which is specific to S. aureus.

S. aureus strain 29213 = experiment: Time-kill experiments; conditions: for time-kill activity (cidal / static): 8 hrs; for reduction of bacterial counts / reduction of bacterial counts (killing): by 8 hours
Protocol: as §3
Twenty mL of MH-II media warmed to 37° C. was seeded with log-phase growth S. aureus strain 29213 at 1×10^6 cfu/mL in 50 mL erlenmeyer shake-flasks. Compound was added at 2× and 4× the MIC value. Negative controls (no drug) and positive drug controls (vancomycin at 2× and 4× the MIC) were included in the experiment. Flasks were shaken at 200 rpm and 37° C. Samples were taken at the times indicated (0, 2, 4, 6, 8 and 24 hrs post inoculation) and bacterial loads were quantified by limiting dilution assay.

[11] = ATCC29213, read-out: MIC in S. aureus 29213, Passage 14, passaged at sub-MIC
[12] = ATCC29213, read-out: MIC in S. aureus 29213, Passage 15, passaged at sub-MIC
[13] = ATCC29213, read-out: MIC in S. aureus 29213, Passage 16, passaged at sub-MIC
[14] = ATCC29213, read-out: MIC in S. aureus 29213, Passage 17, passaged at sub-MIC
[15] = ATCC29213, read-out: MIC in S. aureus 29213, Passage 18, passaged at sub-MIC
[16] = ATCC29213, read-out: MIC in S. aureus 29213, Passage 19, passaged at sub-MIC
[17] = ATCC29213, read-out: MIC in S. aureus 29213, Passage 20, passaged at sub-MIC
[18] = ATCC29213, read-out: MIC in S. aureus 29213, second Passage 20 line of Table 4 (untreated culture passaged 20 times)

Compound | MIC [1] [µg/mL] | MIC [2] [µg/mL] | MIC [3] [µg/mL] | MIC [4] [µg/mL] | MIC [5] [µg/mL] | MIC [6] [µg/mL] | MIC [7] [µg/mL] | CC50 (Mammalian Cell Toxicity [8]) [µg/mL] | CC50 (Mammalian Cell Toxicity [9]) [µg/mL] | MIC (K. pneumoniae 700603) [µg/mL] | MIC (S. aureus ATCC 29213; [11]) [µg/mL] | MIC (S. aureus ATCC 29213; [12]) [µg/mL] | MIC (S. aureus ATCC 29213; [13]) [µg/mL] | MIC (S. aureus ATCC 29213; [14]) [µg/mL] | MIC (S. aureus ATCC 29213; [15]) [µg/mL] | MIC (S. aureus ATCC 29213; [16]) [µg/mL] | MIC (S. aureus ATCC 29213; [17]) [µg/mL] | MIC (S. aureus ATCC 29213; [18]) [µg/mL] | MIC (E. coli ESBL 4) [µg/mL] | spectrum of activity [10] | also measured
Cc1ccc2nc(-c3ccc(NC(=O)CN4CCN(CCO)CC4)cc3)sc2c1 [Compound #169, 2-[4-(2-hydroxyethyl)-1-piperazinyl]-N-[4-(6-methyl-1,3-benzothiazol-2-yl)phenyl]acetamide] | 8 (≈ 19.5 µM) | 16 (≈ 39 µM) | 8 (≈ 19.5 µM) | 16 (≈ 39 µM) | 128 (≈ 312 µM) | 32 (≈ 77.9 µM) | 16 (≈ 39 µM) | < 2 | < 2 | > 128 | 32 (≈ 77.9 µM) | 32 (≈ 77.9 µM) | 32 (≈ 77.9 µM) | 32 (≈ 77.9 µM) | 32 (≈ 77.9 µM) | 32 (≈ 77.9 µM) | 32 (≈ 77.9 µM) | 32 (≈ 77.9 µM) | > 128 | broad spectrum for Gm (+) organisms | MIC (S. aureus ATCC 29213; ATCC29213, read-out: MIC in S. aureus 29213, Passage 4, passaged at sub-MIC): 32 µg/mL (≈ 77.9 µM); time-kill activity (cidal / static) (S. aureus strain 29213; 2× the MIC): static activity; time-kill result by 24 hrs post treatment (S. aureus strain 29213; 2× the MIC, 24 hrs): regrowth of bacteria; reduction of bacterial counts (S. aureus strain 29213; 2× the MIC): 1 log10; time-kill activity (cidal / static) (S. aureus strain 29213; 4× the MIC): static activity; reduction of bacterial counts (killing) (S. aureus strain 29213; 4× the MIC): 1 log10
Brc1ccc(-c2nc(N3CCNCC3)c3ccccc3n2)cc1 [Compound #880, 2-(4-bromophenyl)-4-(1-piperazinyl)-quinazoline] | 8 (≈ 21.7 µM) | 8 (≈ 21.7 µM) | 4 (≈ 10.8 µM) | 8 (≈ 21.7 µM) | 8 (≈ 21.7 µM) | 8 (≈ 21.7 µM) | 8 (≈ 21.7 µM) | 2.11 (≈ 5.71 µM) | 2.18 (≈ 5.9 µM) | > 128 | 16 (≈ 43.3 µM) | 16 (≈ 43.3 µM) | 16 (≈ 43.3 µM) | 16 (≈ 43.3 µM) | 16 (≈ 43.3 µM) | 32 (≈ 86.7 µM) | 32 (≈ 86.7 µM) | 16 (≈ 43.3 µM) | 64 (≈ 173 µM) | broad spectrum for Gm (+) organisms | MIC (S. aureus ATCC 29213; ATCC29213, read-out: MIC in S. aureus 29213, Passage 8, passaged at sub-MIC): 16 µg/mL (≈ 43.3 µM); MIC (S. aureus ATCC 29213; ATCC29213, read-out: MIC in S. aureus 29213, Passage 10, passaged at sub-MIC): 16 µg/mL (≈ 43.3 µM); MIC (S. aureus ATCC 29213; ATCC29213, read-out: MIC in S. aureus 29213, Passage 11, passaged at sub-MIC): 16 µg/mL (≈ 43.3 µM); MIC (S. aureus ATCC 29213; ATCC29213, read-out: MIC in S. aureus 29213, Passage 12, passaged at sub-MIC): 16 µg/mL (≈ 43.3 µM); MIC (S. aureus ATCC 29213; ATCC29213, read-out: MIC in S. aureus 29213, Passage 13, passaged at sub-MIC): 16 µg/mL (≈ 43.3 µM); reduction of bacterial counts (S. aureus strain 29213; 2× the MIC): 2.5 log10; time-kill activity (cidal / static) (S. aureus strain 29213; 4× the MIC): rapidly cidal; bacterial counts by 24 hrs post treatment (S. aureus strain 29213; 4× the MIC, 24 hrs): below detectable levels; reduction of bacterial counts (killing) (S. aureus strain 29213; 4× the MIC): > 3 log10
